Patent EP0623605A2, “Substituted piperazines as antiretroviral medicaments” (BAYER AG, priority 1993, dated 1994)
pIC50: −log10 of the molar value.

Biological target: T1, HIV-Protease (Human immunodeficiency virus type 1 group M subtype B, UniProt P04585)
T1 construct: Gereinigte HIV-Protease wurde mit synthetischem Peptid
Experiment: HIV-specific protease enzyme test (purified HIV protease incubated with synthetic Gag cleavage-site peptide, cleavage products analysed by RP-HPLC)
Assay type: biochemical
Details: for inhibition at 240 µg/mL: read-out: % Inhibition bei 240 µg/ml; for pIC50: substance concentration causing 50% inhibition of protease activity, read-out: IC₅₀
Source text: Darüber hinaus wurde überraschend gefunden, daß die Verbindungen der allgemeinen Formel (I) eine außerordentlich starke Wirkung gegen Retroviren besitzen. Dies wird mit einem HIV-spezifischen Protease-Enzymtest belegt.
Die Ergebnisse der unten aufgeführten Beispiele wurden nach dem in den folgenden Literaturangaben [vgl. Hansen, J., Billich, S., Schulze, T., Sukrow, S. and Mölling, K. (1988), EMBO Journal, Vol, 7, No. 6, pp. 1785 - 1791] beschriebenen HIV-Testsystem ermittelt: Gereinigte HIV-Protease wurde mit synthetischem Peptid, das eine Schnittstelle im Gag-Precursor-Protein imitiert und eine in vivo-Spaltstelle der HIV-Protease darstellt, inkubiert Die entstandenen Spaltprodukte des synthetischen Peptids wurden über Reverse Phase High Performance Liquid Chromatography (RP-HPLC) analysiert. Die angegebenen IC₅₀-Werte beziehen sich auf die Substanzkonzentration, die unter den oben aufgeführten Testbedingungen eine 50%ige Hemmung der Protease-Aktivität bewirkt. Tabelle 1

Structure (SMILES) | inhibition at 240 µg/mL [%] | pIC50
CC(CN1CCN(CCCC(c2ccc(F)cc2)c2ccc(F)cc2)CC1)Oc1cccc2c1CCCC2 (centres unmarked) [Beispiel 41] | 95 | 5.68
CC(CN1CCN(CCCC(c2ccc(F)cc2)c2ccc(F)cc2)CC1)Oc1ccc(F)cc1F (racemic) [Beispiel 10, 1-[4,4-Bis-(4-fluorphenyl)butyl]-4-[(R/S)-2-(2,4-difluorphenoxy)propyl]piperazin] | 77 | 5.32
C[C@H]1CN(CCCC(c2ccc(F)cc2)c2ccc(F)cc2)CCN1CCOc1ccc(F)cc1F [Beispiel 14, (S)-4-[4,4-Bis-(4-fluorphenyl)butyl]-2-methyl-1-[2-(2,4-difluorphenoxy)ethyl]piperazin] | 99 | 5.96
COc1cccc2c1OC(CN1CCN(CCCC(c3ccc(F)cc3)c3ccc(F)cc3)C[C@@H]1C)CC2 (some centres unmarked) [Beispiel 44] | 99 | 4.59
Cc1cccc(OC(C)CN2CCN(CCCC(c3ccc(F)cc3)c3ccc(F)cc3)CC2)c1C (racemic) [Beispiel 37] | 61 | 
CC(CN1CCN(CCCC(c2ccc(F)cc2)c2ccc(F)cc2)CC1)Oc1ccc(C(F)(F)F)cc1 (racemic) [Beispiel 40] | 84 | 
Cc1ccc(N(C)C)cc1OCCN1CCN(CCCC(c2ccc(F)cc2)c2ccc(F)cc2)CC1 [Beispiel 30] | 81 | 
COC(=O)c1ccc(OCCN2CCN(CCCC(c3ccc(F)cc3)c3ccc(F)cc3)CC2)c(N(C)C(C)=O)c1 [Beispiel 33] | 56 | 
Cc1ccc(N)cc1OCCN1CCN(CCCC(c2ccc(F)cc2)c2ccc(F)cc2)CC1 [Beispiel 32] | 67 | 
Cc1cccc(OCCN2CCN(CCCC(c3ccc(F)cc3)c3ccc(F)cc3)CC2)c1C [Beispiel 16] | 59 | 
Cc1cc(Cl)ccc1OC(C)CN1CCN(CCCC(c2ccc(F)cc2)c2ccc(F)cc2)CC1 (centres unmarked) [Beispiel 39] | 77 | 6.00
CN(C)c1ccccc1OCCN1CCN(CCCC(c2ccc(F)cc2)c2ccc(F)cc2)CC1 [Beispiel 3, 1-[4,4-Bis-(4-fluorphenyl)butyl]-4-[2-(2-N,N-dimethylaminophenoxy)ethyl]piperazin] | 76 | 
COc1cc(C)ccc1OCCN1CCN(CCCC(c2ccc(F)cc2)c2ccc(F)cc2)CC1 [Beispiel 22] | 81 | 
Cc1cc(Cl)ccc1OCCN1CCN(CCCC(c2ccc(F)cc2)c2ccc(F)cc2)CC1 [Beispiel 17] | 86 | 6.30
COc1cccc2c1OC(CN1CCN(CCCC(c3ccc(F)cc3)c3ccc(F)cc3)CC1)CC2 (centres unmarked) [Beispiel 27] | 78 | 
CCN(C)c1cc(CO)ccc1OCCN1CCN(CCCC(c2ccc(F)cc2)c2ccc(F)cc2)CC1 [Beispiel 34] | 99 | 6.77
Fc1ccc(C(CCCN2CCN(CCOc3cccc4c3CCCC4)CC2)c2ccc(F)cc2)cc1 [Beispiel 26] | 97 | 6.00
C[C@H]1CN(CCOc2ccc(F)cc2F)CCN1CCCC(c1ccc(F)cc1)c1ccc(F)cc1 [Beispiel 13, (S)-1-[4,4-Bis-(4-fluorphenyl)butyl]-2-methyl-4-[2-(2,4-difluorphenoxy)ethyl]piperazin] | 91 | 6.32
Fc1ccc(C(CCCN2CCN(CCOc3ccc(F)cc3F)CC2)c2ccc(F)cc2)cc1 [Beispiel 15] | 92 | 6.40
